# In patent publication US20080044484A1, “Use of polymeric nanoparticles for vaccine delivery” (THE REGENTS OF THE UNIVERSITY OF CALIFORNIA, priority 2004, published 2008):
# System: T2 cells
# Test: IFNγ release by CTL (ELISA) after incubation with peptide-loaded T2 cells
# Type: cell-based, human
# Conditions: CTL elicited with the corresponding HER2/neu peptide, 20 h, 10^5 CTL/well
# Description: In interferon gamma-release assays, 10^5 HER2/neu-specific CTL were co-incubated with 10^5 peptide-loaded T2 cells for 20 hours at 37° C. The concentrations of human interferon gamma in co-cultured supernatants were then determined by ELISA.
Substance,"Release of IFNγ by CTL, T2 cells loaded with the peptide (Day 1 after peptide loading) [pg/mL]","Release of IFNγ by CTL, T2 cells loaded with the peptide (Day 3 after peptide loading) [pg/mL]","Release of IFNγ by CTL, T2 cells loaded with the peptide (Day 5 after peptide loading) [pg/mL]","Release of IFNγ by CTL, T2 cells loaded with the peptide (Day 8 after peptide loading) [pg/mL]"
M R CLTSTVQLV A A V C S A (MRCLTSTVQLVAAVCSA) [HER789-797-IN-ES],246,312,121,107
HLYQGCQVV MRYMILGLLALAAVCSA (HLYQGCQVVMRYMILGLLALAAVCSA) [HER48-56-ES],418,218,99,101
MRYMILGLLALAAVCSA HLYQGCQVV (MRYMILGLLALAAVCSAHLYQGCQVV) [ES-HER48-56],2894,1876,953,589
MRYMILGLLALAAVCSA CLTSTVQLV (MRYMILGLLALAAVCSACLTSTVQLV) [ES-HER789-797],1824,526,168,110
M A CLTSTVQLV A A A A A G (MACLTSTVQLVAAAAAG) [HER789-797-IN-AF],296,327,178,117
MTNKCLLQIALLLCFSTTALS CLTSTVQLV (MTNKCLLQIALLLCFSTTALSCLTSTVQLV) [IS-HER789-797],1717,315,125,104
HLYQGCQVV MTNKCLLQIALLLCFSTTALS (HLYQGCQVVMTNKCLLQIALLLCFSTTALS) [HER48-56-IS],288,148,155,121
MR HLYQGCQVV AAVCSA (MRHLYQGCQVVAAVCSA) [HER48-56-IN-ES],3368,1349,988,228
MTNKCLLQIALLLCFSTTALS HLYQGCQVV (MTNKCLLQIALLLCFSTTALSHLYQGCQVV) [IS-HER48-56],3268,1264,943,614
CLTSTVQLV MRYMILGLLALAAVCSA (CLTSTVQLVMRYMILGLLALAAVCSA) [HER789-797-ES],58,78,69,98
CLTSTVQLV MTNKCLLQIALLLCFSTTA (CLTSTVQLVMTNKCLLQIALLLCFSTTA) [HER789-797-IS],69,78,87,59
